Measurements reported in US12077503B2, “Substituted cyclic amides and their use as herbicides” (FMC CORPORATION, priority 2015, dated 2024).
Where two headings read alike, the source gives them in different places.

What was measured:
Assay type in all cases: in vivo
[1] = system: Galium (catchweed bedstraw, Galium aparine); assay: Test A postemergence; conditions: Galium, post-emergence, 240 h; for pest or weed control at 125 g/ha: 125 g ai/ha, postemergence
Summary of the method: (§1)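 Preemergence soil spray on seeded pots or post-emergence spray on 1–2 leaf plants, in loam–sand blend. Greenhouse ~10 d. Visual rating 0–100 against untreated plants.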

Kochia (Kochia scoparia) = assay: Test A postemergence; conditions: Bassia scoparia, post-emergence, 240 h; for pest or weed control at 125 g/ha: 125 g ai/ha, postemergence
Summary of the method: as §1

[2] = system: barnyardgrass (Echinochloa crus-galli); assay: Test A postemergence; conditions: Echinochloa crus-galli, post-emergence, 240 h; for pest or weed control at 125 g/ha: 125 g ai/ha, postemergence
Summary of the method: as §1

[3] = system: blackgrass (Alopecurus myosuroides); assay: Test A postemergence; conditions: Alopecurus myosuroides, post-emergence, 240 h; for pest or weed control at 125 g/ha: 125 g ai/ha, postemergence
Summary of the method: as §1

corn (Zea mays) = assay: Test A postemergence; conditions: Zea mays, post-emergence, 240 h
Summary of the method: as §1

[4] = system: giant foxtail (Setaria faberii); assay: Test A postemergence; conditions: Setaria faberi, post-emergence, 240 h; for pest or weed control at 125 g/ha: 125 g ai/ha, postemergence
Summary of the method: as §1

[5] = system: pigweed (Amaranthus retroflexus); assay: Test A postemergence; conditions: Amaranthus retroflexus, post-emergence, 240 h; for pest or weed control at 125 g/ha: 125 g ai/ha, postemergence
Summary of the method: as §1

[6] = system: ragweed (common ragweed, Ambrosia elatior); assay: Test A postemergence; conditions: Ambrosia artemisiifolia, post-emergence, 240 h; for pest or weed control at 125 g/ha: 125 g ai/ha, postemergence
Summary of the method: as §1

[7] = system: ryegrass, Italian (Italian ryegrass, Lolium multiflorum); assay: Test A postemergence; conditions: Lolium multiflorum, post-emergence, 240 h; for pest or weed control at 125 g/ha: 125 g ai/ha, postemergence
Summary of the method: as §1

[8] = system: wheat (Triticum aestivum); assay: Test A postemergence; conditions: Triticum aestivum, post-emergence, 240 h, 0 to 100 scale (0 no effect, 100 complete control), read-out: Plant response rating, Wheat
Summary of the method: as §1

[9] = system: barnyardgrass (Echinochloa crus-galli); assay: Test B flooded paddy test; conditions: Echinochloa crus-galli, 250 g ai/ha, Flood, read-out: Barnyardgrass plant response rating
Summary of the method: (§2)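 Percent control, visually estimated after 13–15 d in the greenhouse on a 0–100 basis, compares treated pots with untreated ones; compound was put into paddy water 3 cm above the soil when plants had two leaves.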

[10] = system: ducksalad (Heteranthera limosa); assay: Test B flooded paddy test; conditions: Heteranthera limosa, 250 g ai/ha, Flood, read-out: Ducksalad plant response rating
Summary of the method: as §2

rice (Oryra sativa) = assay: Test B flooded paddy test; conditions: Oryza sativa, 250 g ai/ha, Flood, read-out: Rice plant response rating
Summary of the method: as §2

[11] = system: sedge, umbrella (small-flower umbrella sedge, Cyperus difformis); assay: Test B flooded paddy test; conditions: Cyperus difformis, 250 g ai/ha, Flood, read-out: Sedge, Umbrella plant response rating
Summary of the method: as §2

[12] = 0 to 100 scale where 0 is no effect and 100 is complete control
[13] = scale of 0 to 100 where 0 is no effect and 100 is complete control

CN1C[C@H](c2ccc(C(F)F)cc2)[C@@H](C(=O)Nc2ccc(F)c(F)c2F)C1=O [Compound 1260]
50%: pest or weed control at 125 g/ha ([5]; visual injury vs untreated controls after approx. 10 d, 0 = no effect, 100 = complete control, read-out: Pigweed plant response rating (0 to 100 scale)) | pest or weed control at 125 g/ha ([6]; visual injury vs untreated controls after approx. 10 d, 0 = no effect, 100 = complete control, read-out: Ragweed plant response rating (0 to 100 scale)) | pest or weed control at 250 g/ha (rice (Oryra sativa); [12])
0%: pest or weed control at 250 g/ha [11, 12]
90%: pest or weed control at 125 g/ha ([2]; visual injury vs untreated controls after approx. 10 d, 0 = no effect, 100 = complete control, read-out: Barnyardgrass plant response rating (0 to 100 scale)) | pest or weed control at 500 g/ha ([2]; Postemergence, 500 g ai/ha, visual injury, 0 to 100 scale (0 no effect, 100 complete control), approx. 10 d, read-out: Plant response rating, Barnyardgrass) | plant injury at 125 g/ha (corn (Zea mays); 125 g ai/ha, postemergence, visual injury vs untreated controls after approx. 10 d, 0 = no effect, 100 = complete control, read-out: Corn plant response rating (0 to 100 scale)) | Corn plant response rating (crop injury, 0 = no effect, 100 = complete kill) at 500 g/ha (corn (Zea mays); Postemergence, 500 g ai/ha, visual injury, 0 to 100 scale (0 no effect, 100 complete control), approx. 10 d) | pest or weed control at 500 g/ha ([4]; Postemergence, 500 g ai/ha, visual injury, 0 to 100 scale (0 no effect, 100 complete control), approx. 10 d, read-out: Plant response rating, Foxtail, Giant) | plant injury at 500 g/ha ([8]; Postemergence, 500 g ai/ha, visual injury, approx. 10 d)
100%: pest or weed control at 250 g/ha [10, 12]
60%: pest or weed control at 125 g/ha (Kochia (Kochia scoparia); visual injury vs untreated controls after approx. 10 d, 0 = no effect, 100 = complete control, read-out: Kochia plant response rating (0 to 100 scale)) | pest or weed control at 125 g/ha ([7]; visual injury vs untreated controls after approx. 10 d, 0 = no effect, 100 = complete control, read-out: Ryegrass, Italian plant response rating (0 to 100 scale))
70%: pest or weed control at 125 g/ha ([1]; visual injury vs untreated controls after approx. 10 d, 0 = no effect, 100 = complete control, read-out: Galium plant response rating (0 to 100 scale)) | pest or weed control at 500 g/ha ([1]; Postemergence, 500 g ai/ha, visual injury, 0 to 100 scale (0 no effect, 100 complete control), approx. 10 d, read-out: Plant response rating, Galium) | pest or weed control at 500 g/ha (Kochia (Kochia scoparia); Postemergence, 500 g ai/ha, visual injury, 0 to 100 scale (0 no effect, 100 complete control), approx. 10 d, read-out: Plant response rating, Kochia) | pest or weed control at 125 g/ha ([3]; visual injury vs untreated controls after approx. 10 d, 0 = no effect, 100 = complete control, read-out: Blackgrass plant response rating (0 to 100 scale)) | pest or weed control at 500 g/ha ([5]; Postemergence, 500 g ai/ha, visual injury, 0 to 100 scale (0 no effect, 100 complete control), approx. 10 d, read-out: Plant response rating, Pigweed) | pest or weed control at 500 g/ha ([6]; Postemergence, 500 g ai/ha, visual injury, 0 to 100 scale (0 no effect, 100 complete control), approx. 10 d, read-out: Plant response rating, Ragweed)
80%: pest or weed control at 500 g/ha ([3]; Postemergence, 500 g ai/ha, visual injury, 0 to 100 scale (0 no effect, 100 complete control), approx. 10 d, read-out: Plant response rating, Blackgrass) | pest or weed control at 125 g/ha ([4]; visual injury vs untreated controls after approx. 10 d, 0 = no effect, 100 = complete control, read-out: Foxtail, Giant plant response rating (0 to 100 scale)) | pest or weed control at 500 g/ha ([7]; Postemergence, 500 g ai/ha, visual injury, 0 to 100 scale (0 no effect, 100 complete control), approx. 10 d, read-out: Plant response rating, Ryegrass, Italian) | pest or weed control at 250 g/ha [9, 12]

COc1ccc([C@H]2CNC(=O)[C@@H]2C(=O)Nc2ccccc2S(C)(=O)=O)cc1F [Compound 721]
20%: pest or weed control at 125 g/ha ([1]; visual injury after approximately 10 d, 0 to 100 scale (0 no effect, 100 complete control), read-out: Plant response rating, Galium)
10%: pest or weed control at 125 g/ha ([2]; visual injury after approximately 10 d, 0 to 100 scale (0 no effect, 100 complete control), read-out: Plant response rating, Barnyardgrass)
0%: pest or weed control at 125 g/ha (Kochia (Kochia scoparia); visual injury after approximately 10 d, 0 to 100 scale (0 no effect, 100 complete control), read-out: Plant response rating, Kochia) | pest or weed control at 125 g/ha ([3]; visual injury after approximately 10 d, 0 to 100 scale (0 no effect, 100 complete control), read-out: Plant response rating, Blackgrass) | Corn plant response rating (crop injury, 0 = no effect, 100 = complete kill) at 125 g/ha (corn (Zea mays); 125 g ai/ha, postemergence, visual injury after approximately 10 d, 0 to 100 scale (0 no effect, 100 complete control)) | pest or weed control at 125 g/ha ([4]; visual injury after approximately 10 d, 0 to 100 scale (0 no effect, 100 complete control), read-out: Plant response rating, Foxtail, Giant) | pest or weed control at 125 g/ha ([5]; visual injury after approximately 10 d, 0 to 100 scale (0 no effect, 100 complete control), read-out: Plant response rating, Pigweed) | pest or weed control at 125 g/ha ([6]; visual injury after approximately 10 d, 0 to 100 scale (0 no effect, 100 complete control), read-out: Plant response rating, Ragweed) | pest or weed control at 125 g/ha ([7]; visual injury after approximately 10 d, 0 to 100 scale (0 no effect, 100 complete control), read-out: Plant response rating, Ryegrass, Italian) | plant injury at 125 g/ha ([8]; 125 g ai/ha, postemergence, visual injury after approximately 10 d) | pest or weed control at 250 g/ha [9, 13] | pest or weed control at 250 g/ha (rice (Oryra sativa); [13]) | pest or weed control at 250 g/ha [11, 13]
100%: pest or weed control at 250 g/ha [10, 13]
